In ChEMBL document CHEMBL5352469, “Solubility-driven optimization of benzothiopyranone salts leading to a preclinical candidate with improved pharmacokinetic properties and activity against Mycobacterium tuberculosis” (Eur J Med Chem, 2023):
Converted amounts (≈) assume the structure as drawn.

Assays:
[1] = Aqueous solubility of compound by HPLC-PDA method; format: physicochemical; details: buffer; read-out: solubility
[2] = Apparent permeability across apical to basolateral side in human Caco-2 cells incubated for 21 days; format: ADME, cell-based; details: time 21 day
[3] = Apparent permeability across basolateral to apical side in human Caco-2 cells incubated for 21 days; format: ADME, cell-based; details: time 21 day
[4] = Efflux ratio of apparent permeability across basolateral to apical side over apical to basolateral side in human Caco-2 cells; format: ADME, cell-based
[5] = Elimination half life in Balb/c mouse at 50 mg/kg, po measured upto 24 hrs by LC/MS/MS analysis; format: ADME, organism-based; details: in vivo, read-out: beta t1/2 (converted)
[6] = Elimination half life in Balb/c mouse at 5 mg/kg, iv measured upto 24 hrs by LC/MS/MS analysis; format: ADME, organism-based; details: in vivo, read-out: beta t1/2 (converted)
[7] = Tmax in Balb/c mouse at 50 mg/kg, po measured upto 24 hrs by LC/MS/MS analysis; format: ADME, organism-based; details: in vivo
[8] = Cmax in Balb/c mouse at 50 mg/kg, po measured upto 24 hrs by LC/MS/MS analysis; format: ADME, organism-based; set-up: time < 24 hrs, dose 50 mg/kg, route po; details: in vivo
[9] = Cmax in Balb/c mouse at 5 mg/kg, iv measured upto 24 hrs by LC/MS/MS analysis; format: ADME, organism-based; set-up: dose 5 mg/kg, time < 24 hrs, route iv; details: in vivo
[10] = AUC (0 to t) in Balb/c mouse at 50 mg/kg, po measured upto 24 hrs by LC/MS/MS analysis; format: ADME, organism-based; set-up: dose 50 mg/kg, time < 24 hrs, route po; details: in vivo; for AUC(0-t) at 24 h: Balb/c
[11] = AUC (0 to t) in Balb/c mouse at 5 mg/kg, iv measured upto 24 hrs by LC/MS/MS analysis; format: ADME, organism-based; set-up: time < 24 hrs, dose 5 mg/kg, route iv; details: in vivo; for AUC(0-t) at 24 h: Balb/c
[12] = Oral bioavailability in Balb/c mouse at 50 mg/kg measured upto 24 hrs by LC/MS/MS analysis; format: ADME, organism-based; details: in vivo; for bioavailability: Balb/c
[13] = Elimination half life in Sprague-Dawley rat at 50 mg/kg, po measured upto 24 hrs by LC/MS/MS analysis; format: ADME, organism-based; details: in vivo, read-out: beta t1/2 (converted)
[14] = Elimination half life in Sprague-Dawley rat at 5 mg/kg, iv measured upto 24 hrs by LC/MS/MS analysis; format: ADME, organism-based; details: in vivo, read-out: beta t1/2 (converted)
[15] = Tmax in Sprague-Dawley rat at 50 mg/kg, po measured upto 24 hrs by LC/MS/MS analysis; format: ADME, organism-based; details: in vivo
[16] = Cmax in Sprague-Dawley rat at 50 mg/kg, po measured upto 24 hrs by LC/MS/MS analysis; format: ADME, organism-based; set-up: time < 24 hrs, dose 50 mg/kg, route po; details: in vivo
[17] = Cmax in Sprague-Dawley rat at 5 mg/kg, iv measured upto 24 hrs by LC/MS/MS analysis; format: ADME, organism-based; set-up: time < 24 hrs, dose 5 mg/kg, route iv; details: in vivo
[18] = AUC (0 to t) in Sprague-Dawley rat at 50 mg/kg, po measured upto 24 hrs by LC/MS/MS analysis; format: ADME, organism-based; set-up: dose 50 mg/kg, time < 24 hrs, route po; details: in vivo
[19] = AUC (0 to t) in Sprague-Dawley rat at 5 mg/kg, iv measured upto 24 hrs by LC/MS/MS analysis; format: ADME, organism-based; set-up: time < 24 hrs, dose 5 mg/kg, route iv; details: in vivo
[20] = AUC (0 to infinity) in Sprague-Dawley rat at 50 mg/kg, po measured upto 24 hrs by LC/MS/MS analysis; format: ADME, organism-based; set-up: time < 24 hrs, dose 50 mg/kg, route po; details: in vivo
[21] = AUC (0 to infinity) in Sprague-Dawley rat at 5 mg/kg, iv measured upto 24 hrs by LC/MS/MS analysis; format: ADME, organism-based; set-up: time < 24 hrs, dose 5 mg/kg, route iv; details: in vivo
[22] = MRT (0 to infinity) in Sprague-Dawley rat at 50 mg/kg, po measured upto 24 hrs by LC/MS/MS analysis; format: ADME, organism-based; details: in vivo
[23] = MRT (0 to infinity) in Sprague-Dawley rat at 5 mg/kg, iv measured upto 24 hrs by LC/MS/MS analysis; format: ADME, organism-based; details: in vivo
[24] = Clearance in Sprague-Dawley rat at 5 mg/kg, iv measured upto 24 hrs by LC/MS/MS analysis; format: ADME, organism-based; details: in vivo
[25] = Oral bioavailability in Sprague-Dawley rat at 50 mg/kg measured upto 24 hrs by LC/MS/MS analysis; format: ADME, organism-based; details: in vivo
[26] = Chemical stability of the compound under 4500 +/- 500 lx light condition by measuring compound purity incubated for 10 days by HPLC-PDA method relative to initial purity; format: physicochemical; details: time 10 day; for Stability: 240 h
[27] = Chemical stability of the compound under 60 degree C high temperature by measuring compound purity incubated for 10 days by HPLC-PDA method analysis relative to initial purity; format: physicochemical; details: time 10 day; for Stability: 240 h
[28] = Chemical stability of the compound under 92.5% humidity by measuring compound purity incubated for 10 days by HPLC-PDA method relative to initial purity; format: physicochemical; details: time 10 day; for Stability: 240 h
[29] = Lipophilicity, log P of the compound in octanol/water incubated for 72 hrs under shaking condition by shake flask based HPLC-PDA method; format: physicochemical
[30] = Lipophilicity, log D of the compound in octanol/water at pH 2.0 incubated for 72 hrs under shaking condition by shake flask based HPLC-PDA method; format: physicochemical
[31] = Lipophilicity, log D of the compound in octanol/water at pH 4.0 incubated for 72 hrs under shaking condition by shake flask based HPLC-PDA method; format: physicochemical
[32] = Lipophilicity, log D of the compound in octanol/water at pH 6.8 incubated for 72 hrs under shaking condition by shake flask based HPLC-PDA method; format: physicochemical
[33] = Lipophilicity, log D of the compound in octanol/water at pH 7.6 incubated for 72 hrs under shaking condition by shake flask based HPLC-PDA method; format: physicochemical
[34] = system: Mycobacterium tuberculosis; assay: Antibacterial activity against Mycobacterium tuberculosis H37Rv BALB/c mouse model assessed as reduction in CFU in lungs at 25 mg/kg via oral gavage for 30 days (reference value: 5.92 +/-0.29); format: functional; details: time 30 day
[35] = system: Mycobacterium tuberculosis; assay: Antibacterial activity against Mycobacterium tuberculosis H37Rv BALB/c mouse model assessed as reduction in CFU in lungs at 50 mg/kg via oral gavage for 30 days (reference value: 5.92 +/-0.29); format: functional; details: time 30 day
[36] = system: Mycobacterium tuberculosis; assay: Antibacterial activity against Mycobacterium tuberculosis H37Rv BALB/c mouse model assessed as reduction in CFU in lungs at 100 mg/kg via oral gavage for 30 days (reference value: 5.92 +/-0.29); format: functional; details: time 30 day
[37] = system: Mycobacterium tuberculosis; assay: Antibacterial activity against Mycobacterium tuberculosis H37Rv BALB/c mouse model assessed as reduction in delta CFU in lungs at 25 mg/kg via oral gavage for 30 days; format: functional; details: time 30 day
[38] = system: Mycobacterium tuberculosis; assay: Antibacterial activity against Mycobacterium tuberculosis H37Rv BALB/c mouse model assessed as reduction in delta CFU in lungs at 50 mg/kg via oral gavage for 30 days; format: functional; details: time 30 day
[39] = system: Mycobacterium tuberculosis; assay: Antibacterial activity against Mycobacterium tuberculosis H37Rv BALB/c mouse model assessed as reduction in delta CFU in lungs at 100 mg/kg via oral gavage for 30 days; format: functional; details: time 30 day
[40] = system: Mycobacterium tuberculosis; assay: Antibacterial activity against Mycobacterium tuberculosis H37Rv by microplate alamar blue assay; format: functional
[41] = system: Mycobacterium tuberculosis; assay: Antibacterial activity against Mycobacterium tuberculosis H37Rv BALB/c mouse model assessed as reduction in CFU in lungs at 12.5 mg/kg via oral gavage for 30 days (reference value: 5.35 +/-0.17); format: functional; details: time 30 day
[42] = system: Mycobacterium tuberculosis; assay: Antibacterial activity against Mycobacterium tuberculosis H37Rv BALB/c mouse model assessed as reduction in CFU in lungs at 25 mg/kg via oral gavage for 30 days (reference value: 5.35 +/-0.17); format: functional; details: time 30 day
[43] = system: Mycobacterium tuberculosis; assay: Antibacterial activity against Mycobacterium tuberculosis H37Rv BALB/c mouse model assessed as reduction in delta CFU in lungs at 12.5 mg/kg via oral gavage for 30 days; format: functional; details: time 30 day

O=c1cc(N2CCN(CC3CCCCC3)CC2)sc2c([N+](=O)[O-])cc(C(F)(F)F)cc12
solubility [1]: 0.15 µg/mL (≈ 0.329 µM)
Papp A→B [2]: 11.8 ×10⁻⁶ cm/s
Papp B→A [3]: 0.69 ×10⁻⁶ cm/s
efflux ratio [4]: 0.1
half-life [5]: 7.25 h
half-life [6]: 6.54 h
Tmax [7]: 0.5 h
Cmax [8]: 588 ng/mL
Cmax [9]: 8240 ng/mL
AUCt ([10]; 24 h): 1581 ng·h/mL
AUCt ([11]; 24 h): 4954 ng·h/mL
F ([12]; po, 50 mg/kg, 24 h): 13.1%
half-life [13]: 3.83 h
half-life [14]: 8.27 h
Tmax [15]: 3.67 h
Cmax [16]: 109 ng/mL
Cmax [17]: 3560 ng/mL
AUC(0-t) at 24 h [18]: 741 ng·h/mL
AUC(0-t) at 24 h [19]: 1540 ng·h/mL
AUC(0-inf) [20]: 769 ng·h/mL
AUC(0-inf) [21]: 1580 ng·h/mL
MRT inf [22]: 5.94 h
MRT inf [23]: 2.99 h
clearance [24]: 53.8 mL/min/kg
bioavailability [25]: 4.87%
Stability [26]: 98.2%
Stability [27]: 100%
Stability [28]: 100%
logP ([29]; 72 h): 3.71
logD ([30]; pH 2, 72 h): 1.29
logD ([31]; pH 4, 72 h): 3.72
logD ([32]; pH 6.8, 72 h): > 4.3
logD ([33]; pH 7.6, 72 h): > 4.32
Activity [34]: 3.64 log10CFU
Activity [35]: 2.34 log10CFU
Activity [36]: 2.19 log10CFU
Activity [37]: 2.28 log10CFU
Activity [38]: 3.58 log10CFU
Activity [39]: 3.73 log10CFU

O=C(O)CC(O)(CC(=O)O)C(=O)O.O=c1cc(N2CCN(CC3CCCCC3)CC2)sc2c([N+](=O)[O-])cc(C(F)(F)F)cc12
solubility [1]: 143 µg/mL
Papp A→B [2]: 2.52 ×10⁻⁶ cm/s
Papp B→A [3]: 0.33 ×10⁻⁶ cm/s
efflux ratio [4]: 0.13
half-life [5]: 6.19 h
half-life [6]: 6.67 h
Tmax [7]: 0.5 h
Cmax [8]: 536 ng/mL
Cmax [9]: 3780 ng/mL
AUC(0-t) at 24 h [10]: 4440 ng·h/mL
AUC(0-t) at 24 h [11]: 2360 ng·h/mL
bioavailability [12]: 19.4%
Stability [26]: 91.3%
Stability [27]: 99.6%
Stability [28]: 99.4%

O=C(O)/C=C\C(=O)O.O=c1cc(N2CCN(CC3CCCCC3)CC2)sc2c([N+](=O)[O-])cc(C(F)(F)F)cc12
solubility [1]: 114 µg/mL
Papp A→B [2]: 3.1 ×10⁻⁶ cm/s
Papp B→A [3]: 0.25 ×10⁻⁶ cm/s
efflux ratio [4]: 0.1
half-life [5]: 5.99 h
half-life [6]: 6.61 h
Tmax [7]: 1.5 h
Cmax [8]: 776 ng/mL
Cmax [9]: 3090 ng/mL
AUC(0-t) at 24 h [10]: 7110 ng·h/mL
AUC(0-t) at 24 h [11]: 2570 ng·h/mL
bioavailability [12]: 28%
half-life [13]: 4.56 h
half-life [14]: 6.43 h
Tmax [15]: 3.33 h
Cmax [16]: 282 ng/mL
Cmax [17]: 3880 ng/mL
AUC(0-t) at 24 h [18]: 2130 ng·h/mL
AUC(0-t) at 24 h [19]: 1710 ng·h/mL
AUC(0-inf) [20]: 2180 ng·h/mL
AUC(0-inf) [21]: 1740 ng·h/mL
MRT inf [22]: 5.91 h
MRT inf [23]: 2.46 h
clearance [24]: 52.4 mL/min/kg
bioavailability [25]: 12.5%
remaining at 240 h ([26]; read-out: Stability): 100%
remaining at 240 h ([27]; read-out: Stability): 100%
remaining at 240 h ([28]; read-out: Stability): 100%
logP at 72 h [29]: 2.6
logD at 72 h ([30]; pH 2): 1.31
logD at 72 h ([31]; pH 4): 3.6
logD at 72 h ([32]; pH 6.8): > 4.24
logD at 72 h ([33]; pH 7.6): > 4.24
MIC [40]: < 0.016 µg/mL
Activity [41]: 4.6 log10CFU
Activity [42]: 2.12 log10CFU
Activity [43]: 0.75 log10CFU
Activity [37]: 3.23 log10CFU

O=C(O)C[C@H](O)C(=O)O.O=c1cc(N2CCN(CC3CCCCC3)CC2)sc2c([N+](=O)[O-])cc(C(F)(F)F)cc12
solubility [1]: 158 µg/mL
Papp A→B [2]: 7.78 ×10⁻⁶ cm/s
Papp B→A [3]: 0.28 ×10⁻⁶ cm/s
half-life [5]: 6 h
half-life [6]: 5.9 h
Tmax [7]: 1 h
Cmax [8]: 979 ng/mL
Cmax [9]: 3950 ng/mL
AUC(0-t) at 24 h [10]: 7280 ng·h/mL
AUC(0-t) at 24 h [11]: 2730 ng·h/mL
bioavailability [12]: 27.7%
Stability [26]: 90.6%
Stability [27]: 98.2%
Stability [28]: 98.3%
